Test results from patent US9073855B2, “BCL-2 selective apoptosis-inducing agents for the treatment of cancer and immune diseases” (AbbVie Inc., priority 2008, dated 2015).
pEC50, pKi: −log10 of the molar value.

Key:
FL5.12/Bcl-2 cells = assay: FL5.12/Bcl-2 cell viability assay under IL-3 withdrawal (CellTitre Glo); type: cell-based, murine; conditions: Mus musculus, IL-3 withdrawn 48 hrs, then 24 hrs with compound
Outline: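 Bcl-2-overexpressing murine FL5.12 transfectants underwent IL-3 removal for 48 hrs before a 24 hr compound treatment. Cell viability was quantified with CellTitre Glo.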

Canine platelets = assay: Platelet cell viability assay (platelet-rich plasma, Cell Titer Glo); type: cell-based; conditions: Canis lupus familiaris, 5 h, isolated canine platelets ex vivo, five hours at 37° C.
Experimental: After the incubation, platelets were equilibrated to room temperature for 20 minutes and then an equal volume of Cell Titer Glo reagent (Promega Corporation) was added. Samples were mixed for two minutes and then allowed to equilibrate for an additional 10 minutes at room temperature. The luminescence generated from the samples was quantitated using an LJL Analyst plate reader.
The effect of compounds on platelet survival can be directly evaluated ex vivo by examining the viability of isolated canine platelets in the presence of various concentrations of compound.

GST-Bcl-2 = GST-Bcl-2 (Homo sapiens, UniProt P10415); assay: TR-FRET binding assay, GST-Bcl-2 with F-Bak peptide probe; conditions: TR-FRET Binding Affinity, GST-Bcl-2, F-Bak peptide probe
Chain of GST-Bcl-2 (P10415 whole entry): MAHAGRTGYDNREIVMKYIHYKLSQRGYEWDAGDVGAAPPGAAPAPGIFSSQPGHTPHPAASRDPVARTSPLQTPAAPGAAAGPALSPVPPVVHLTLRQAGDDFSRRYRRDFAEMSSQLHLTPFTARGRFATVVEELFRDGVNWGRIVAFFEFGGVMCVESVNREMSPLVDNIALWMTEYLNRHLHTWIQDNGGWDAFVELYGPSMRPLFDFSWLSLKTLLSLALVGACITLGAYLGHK
Outline: (§1)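 Displacement of a fluorescein-labelled Bak peptide from the GST-tagged protein was followed by time-resolved FRET with a terbium anti-GST donor after 3 h incubation at room temperature. Inhibition constants were calculated with Wang's equation.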

GST-Bcl-XL = GST-Bcl-XL (Homo sapiens, UniProt Q07817); assay: TR-FRET binding assay, GST-Bcl-XL with F-Bak peptide probe; conditions: TR-FRET Binding Affinity, GST-Bcl-XL, F-Bak peptide probe
Chain of GST-Bcl-XL (Q07817 whole entry): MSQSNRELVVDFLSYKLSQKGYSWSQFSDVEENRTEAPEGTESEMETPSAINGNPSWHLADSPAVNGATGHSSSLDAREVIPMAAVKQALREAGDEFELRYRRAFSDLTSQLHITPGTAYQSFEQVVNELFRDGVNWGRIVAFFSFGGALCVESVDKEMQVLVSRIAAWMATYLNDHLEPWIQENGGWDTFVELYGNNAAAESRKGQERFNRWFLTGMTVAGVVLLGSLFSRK
Outline: as §1

## CN(C)CCOc1cccc(-c2ccc(Cl)cc2)c1CN1CCN(c2ccc(C(=O)NS(=O)(=O)c3ccc(NCCCN4CCCC4)c([N+](=O)[O-])c3)c(Oc3ccc4[nH]ccc4c3)c2)CC1 [Example 134, 4-[4-({4′-chloro-3-[2-(dimethylamino)ethoxy]-1,1′-biphenyl-2-yl}methyl)piperazin-1-yl]-2-(1H-indol-5-yloxy)-N-({3-nitro-4-[(3-pyrrolidin-1-ylpropyl)amino]phenyl}sulfonyl)benzamide]
FL5.12/Bcl-2 cells
  pEC50: 7.32
Canine platelets
  pEC50: 5.33
GST-Bcl-2
  pKi: 10.28
GST-Bcl-XL
  pKi: 7.74

## CN(C)CCOc1ccc(-c2ccc(Cl)cc2)c(CN2CCN(c3ccc(C(=O)NS(=O)(=O)c4ccc(NCC5CCOCC5)c(S(=O)(=O)C(F)(F)F)c4)c(Oc4ccccc4)c3)CC2)c1 [Example 120, 4-[4-({4′-chloro-4-[2-(dimethylamino)ethoxy]-1,1′-biphenyl-2-yl}methyl)piperazin-1-yl]-2-phenoxy-N-({4-[(tetrahydro-2H-pyran-4-ylmethyl)amino]-3-[(trifluoromethyl)sulfonyl]phenyl}sulfonyl)benzamide]
FL5.12/Bcl-2 cells
  pEC50: 6.50
Canine platelets
  pEC50: < 4.30
GST-Bcl-2
  pKi: 9.35
GST-Bcl-XL
  pKi: 7.00

## CN(C)CCCNc1ccc(S(=O)(=O)NC(=O)c2ccc(N3CCN(CC4=C(c5ccc(Cl)cc5)CC(C)(C)CC4)CC3)cc2Oc2ccc3[nH]ccc3c2)cc1C(F)(F)F [Example 171, 4-(4-{[2-(4-chlorophenyl)-4,4-dimethylcyclohex-1-en-1-yl]methyl}piperazin-1-yl)-N-{[4-{[3-(dimethylamino)propyl]amino}-3-(trifluoromethyl)phenyl]sulfonyl}-2-(1H-indol-5-yloxy)benzamide]
FL5.12/Bcl-2 cells
  pEC50: 6.56
Canine platelets
  pEC50: < 4.30
GST-Bcl-2
  pKi: 8.53
GST-Bcl-XL
  pKi: 7.28

## CN(C)CCOc1cccc(-c2ccc(Cl)cc2)c1CN1CCN(c2ccc(C(=O)NS(=O)(=O)c3ccc(NCC4CCOCC4)c([N+](=O)[O-])c3)c(Oc3ccccc3)c2)CC1 [Example 122, 4-[4-({4′-chloro-3-[2-(dimethylamino)ethoxy]-1,1′-biphenyl-2-yl}methyl)piperazin-1-yl]-N-({3-nitro-4-[(tetrahydro-2H-pyran-4-ylmethyl)amino]phenyl}sulfonyl)-2-phenoxybenzamide]
FL5.12/Bcl-2 cells
  pEC50: 7.40
Canine platelets
  pEC50: < 4.30
GST-Bcl-2
  pKi: 10.24
GST-Bcl-XL
  pKi: 7.92

## CN1CCC(Nc2ccc(S(=O)(=O)NC(=O)c3ccc(N4CCN(CC5=C(c6ccc(Cl)cc6)CCCC5)CC4)cc3Oc3ccc4[nH]ccc4c3)cc2[N+](=O)[O-])CC1 [Example 75, 4-(4-{[2-(4-chlorophenyl)cyclohex-1-en-1-yl]methyl}piperazin-1-yl)-2-(1H-indol-5-yloxy)-N-({4-[(1-methylpiperidin-4-yl)amino]-3-nitrophenyl}sulfonyl)benzamide]
FL5.12/Bcl-2 cells
  pEC50: 7.66
Canine platelets
  pEC50: 4.75
GST-Bcl-2
  pKi: 9.90
GST-Bcl-XL
  pKi: 6.97

## CN(C)CCCOc1ccc(S(=O)(=O)NC(=O)c2ccc(N3CCN(Cc4ccccc4-c4ccc(Cl)cc4)CC3)cc2Oc2ccccc2)cc1[N+](=O)[O-] [Example 94, 4-{4-[(4′-chloro-1,1′-biphenyl-2-yl)methyl]piperazin-1-yl}-N-({4-[3-(dimethylamino)propoxy]-3-nitrophenyl}sulfonyl)-2-phenoxybenzamide]
FL5.12/Bcl-2 cells
  pEC50: 7.40
Canine platelets
  pEC50: 4.62
GST-Bcl-2
  pKi: 10.15
GST-Bcl-XL
  pKi: 8.64

## CN1CCN(CCCNc2ccc(S(=O)(=O)NC(=O)c3ccc(N4CCN(CC5=C(c6ccc(Cl)cc6)CC(C)(C)CC5)CC4)cc3Oc3ccc4[nH]ccc4c3)cc2[N+](=O)[O-])CC1 [Example 96, 4-(4-{[2-(4-chlorophenyl)-4,4-dimethylcyclohex-1-en-1-yl]methyl}piperazin-1-yl)-2-(1H-indol-5-yloxy)-N-[(4-{[3-(4-methylpiperazin-1-yl)propyl]amino}-3-nitrophenyl)sulfonyl]benzamide]
FL5.12/Bcl-2 cells
  pEC50: 7.96
Canine platelets
  pEC50: 4.65
GST-Bcl-2
  pKi: 10.33
GST-Bcl-XL
  pKi: 8.06

## CN1CCC(CNc2ccc(S(=O)(=O)NC(=O)c3ccc(N4CCN(Cc5ccccc5-c5ccc(Cl)cc5)CC4)cc3Oc3ccccc3)cc2[N+](=O)[O-])CC1 [Example 88, 4-{4-[(4′-chloro-1,1′-biphenyl-2-yl)methyl]piperazin-1-yl}-N-[(4-{[(1-methylpiperidin-4-yl)methyl]amino}-3-nitrophenyl)sulfonyl]-2-phenoxybenzamide]
FL5.12/Bcl-2 cells
  pEC50: 7.49
Canine platelets
  pEC50: 4.70
GST-Bcl-2
  pKi: 10.16
GST-Bcl-XL
  pKi: 8.33

## CN1CCC(CNc2ccc(S(=O)(=O)NC(=O)c3ccc(N4CCN(CC5=C(c6ccc(Cl)cc6)CC(C)(C)CC5)CC4)cc3Oc3ccc4[nH]ccc4c3)cc2[N+](=O)[O-])CC1 [Example 104, 4-(4-{[2-(4-chlorophenyl)-4,4-dimethylcyclohex-1-en-1-yl]methyl}piperazin-1-yl)-2-(1H-indol-5-yloxy)-N-[(4-{[(1-methylpiperidin-4-yl)methyl]amino}-3-nitrophenyl)sulfonyl]benzamide]
FL5.12/Bcl-2 cells
  pEC50: 7.68
Canine platelets
  pEC50: < 4.30
GST-Bcl-2
  pKi: 10.11
GST-Bcl-XL
  pKi: 7.31

## CN(C)CCCNc1ccc(S(=O)(=O)NC(=O)c2ccc(N3CCN(CC4=C(c5ccc(Cl)cc5)CCC(C)(C)C4)CC3)cc2Oc2cccc3[nH]ccc23)cc1[N+](=O)[O-] [Example 56, 4-(4-{[2-(4-chlorophenyl)-5,5-dimethylcyclohex-1-en-1-yl]methyl}piperazin-1-yl)-N-[(4-{[3-(dimethylamino)propyl]amino}-3-nitrophenyl)sulfonyl]-2-(1H-indol-4-yloxy)benzamide]
FL5.12/Bcl-2 cells
  pEC50: 7.31
Canine platelets
  pEC50: 4.57
GST-Bcl-2
  pKi: 9.57
GST-Bcl-XL
  pKi: 7.89

## CC1(C)CCC(CN2CCN(c3ccc(C(=O)NS(=O)(=O)c4ccc(NCCCN5CCOCC5)c([N+](=O)[O-])c4)c(Oc4ccc5c(c4)CCCN5)c3)CC2)=C(c2ccc(Cl)cc2)C1 [Example 22, 4-(4-{[2-(4-chlorophenyl)-4,4-dimethylcyclohex-1-en-1-yl]methyl}piperazin-1-yl)-N-({4-[(3-morpholin-4-ylpropyl)amino]-3-nitrophenyl}sulfonyl)-2-(1,2,3,4-tetrahydroquinolin-6-yloxy)benzamide]
FL5.12/Bcl-2 cells
  pEC50: 6.08
Canine platelets
  pEC50: < 4.30
GST-Bcl-2
  pKi: 8.21
GST-Bcl-XL
  pKi: 6.90

## CC1(C)CCC(CN2CCN(c3ccc(C(=O)NS(=O)(=O)c4ccc(NCCCN5CCCC5)c([N+](=O)[O-])c4)c(Oc4cccc5[nH]ccc45)c3)CC2)=C(c2cccc(C(F)(F)F)c2)C1 [Example 71, 4-[4-({4,4-dimethyl-2-[3-(trifluoromethyl)phenyl]cyclohex-1-en-1-yl}methyl)piperazin-1-yl]-2-(1H-indol-4-yloxy)-N-({3-nitro-4-[(3-pyrrolidin-1-ylpropyl)amino]phenyl}sulfonyl)benzamide]
FL5.12/Bcl-2 cells
  pEC50: 6.34
Canine platelets
  pEC50: < 4.30
GST-Bcl-2
  pKi: 8.21
GST-Bcl-XL
  pKi: < 6.18

## CN1CCN(Nc2ccc(S(=O)(=O)NC(=O)c3ccc(N4CCN(CC5=C(c6ccc(Cl)cc6)CC(C)(C)CC5)CC4)cc3Oc3ccc4[nH]ccc4c3)cc2[N+](=O)[O-])CC1 [Example 174, 4-(4-{[2-(4-chlorophenyl)-4,4-dimethylcyclohex-1-en-1-yl]methyl}piperazin-1-yl)-2-(1H-indol-5-yloxy)-N-({4-[(4-methylpiperazin-1-yl)amino]-3-nitrophenyl}sulfonyl)benzamide]
FL5.12/Bcl-2 cells
  pEC50: 7.96
Canine platelets
  pEC50: 4.71
GST-Bcl-2
  pKi: 9.98
GST-Bcl-XL
  pKi: 7.21

## CN1CCC(CNc2ccc(S(=O)(=O)NC(=O)c3ccc(N4CCN(CC5=C(c6ccc(Cl)cc6)CC(C)(C)CC5)CC4)cc3Oc3ccc4[nH]ccc4c3)cc2[N+](=O)[O-])(N(C)C)CC1 [Example 109, 4-(4-{[2-(4-chlorophenyl)-4,4-dimethylcyclohex-1-en-1-yl]methyl}piperazin-1-yl)-N-{[4-({[4-(dimethylamino)-1-methylpiperidin-4-yl]methyl}amino)-3-nitrophenyl]sulfonyl}-2-(1H-indol-5-yloxy)benzamide]
FL5.12/Bcl-2 cells
  pEC50: 7.44
Canine platelets
  pEC50: < 4.30
GST-Bcl-2
  pKi: 9.79
GST-Bcl-XL
  pKi: < 6.18

## CN1CCC(Nc2ccc(S(=O)(=O)NC(=O)c3ccc(N4CCN(CC5=C(c6ccc(Cl)cc6)CC(C)(C)CC5)CC4)cc3Oc3cccc4[nH]ccc34)cc2[N+](=O)[O-])CC1 [Example 103, 4-(4-{[2-(4-chlorophenyl)-4,4-dimethylcyclohex-1-en-1-yl]methyl}piperazin-1-yl)-2-(1H-indol-4-yloxy)-N-({4-[(1-methylpiperidin-4-yl)amino]-3-nitrophenyl}sulfonyl)benzamide]
FL5.12/Bcl-2 cells
  pEC50: 7.85
Canine platelets
  pEC50: 4.50
GST-Bcl-2
  pKi: 10.25
GST-Bcl-XL
  pKi: 6.93

## CN(C)CCOc1ccc(-c2ccc(Cl)cc2)c(CN2CCN(c3ccc(C(=O)NS(=O)(=O)c4ccc(NCCCN5CCCC5)c([N+](=O)[O-])c4)c(Oc4ccc5[nH]ccc5c4)c3)CC2)c1 [Example 135, 4-[4-({4′-chloro-4-[2-(dimethylamino)ethoxy]-1,1′-biphenyl-2-yl}methyl)piperazin-1-yl]-2-(1H-indol-5-yloxy)-N-({3-nitro-4-[(3-pyrrolidin-1-ylpropyl)amino]phenyl}sulfonyl)benzamide]
FL5.12/Bcl-2 cells
  pEC50: 7.38
Canine platelets
  pEC50: 5.34
GST-Bcl-2
  pKi: 11.10
GST-Bcl-XL
  pKi: 8.20
